Read-outs that look alike come from different tables or passages of the source.
Legend:
[1] = tested on: KM12 Cliff (G595R) cell line; assay: NTRK G595R mutant cellular assay (CellTiter-Glo growth inhibition); type: cell-based; conditions: 72 hr, CellTiter-Glo
Protocol: (§1) NTRK Wild Type and G595R Mutant Cellular Assays Protocol
(§2) KM12 wild type colon carcinoma cell line harboring the TPM3-NTRK1 fusion protein was obtained from the National Cancer Institute (NCI). This line has been previously shown to be dependent upon the NTRK activity derived from the NTRK fusion protein for growth and survival. […] Cells were first plated in 384-well plates at 1000 cells/well in complete media (10% FBS and 1% pen/strep) and incubated overnight at 37° C. Cells were then dosed with test articles at varying concentrations using the Bravo liquid handling system. […] Each compound was run in duplicate per plate. […] 72 hr after dosing, assay plates were developed using CellTiter-Glo (Promega) and resultant luminescence was read on the Envision plate reader. IC50 determinations were calculated using a 4-parameter curve fitting algorithm

[2] = biological target: T1, wild type NTRK1 enzyme (Homo sapiens, UniProt P04629); assay: NTRK1 Wild Type Assay at 1 mM ATP; type: biochemical; conditions: 1 mM ATP; read-out: Enz NTRK1 IC50
T1 construct: purchased BPS Bioscience 40280
Protocol: NTRK1 Wild Type Assay at 1 mM ATP
The reaction was stopped by the addition of 70 μL of Stop buffer (100 mM HEPES pH 7.5, 0.015% Brij 35, 35 mM EDTA and 0.2% of Coating Reagent 3 (Caliper Lifesciences)). The plate was then read on a Caliper EZReader 2 (protocol settings: −1.7 psi, upstream voltage −500, downstream voltage −3000, post sample sip 35s).

[3] = tested on: KM12 wild type colon carcinoma cell line harboring the TPM3-NTRK1 fusion protein; assay: NTRK wild type cellular assay (CellTiter-Glo growth inhibition); type: cell-based; conditions: 72 hr, CellTiter-Glo, read-out: KM12 (WT) IC50
Protocol: as §1, §2

T1 sequence (P04629 440-796 limits assumed): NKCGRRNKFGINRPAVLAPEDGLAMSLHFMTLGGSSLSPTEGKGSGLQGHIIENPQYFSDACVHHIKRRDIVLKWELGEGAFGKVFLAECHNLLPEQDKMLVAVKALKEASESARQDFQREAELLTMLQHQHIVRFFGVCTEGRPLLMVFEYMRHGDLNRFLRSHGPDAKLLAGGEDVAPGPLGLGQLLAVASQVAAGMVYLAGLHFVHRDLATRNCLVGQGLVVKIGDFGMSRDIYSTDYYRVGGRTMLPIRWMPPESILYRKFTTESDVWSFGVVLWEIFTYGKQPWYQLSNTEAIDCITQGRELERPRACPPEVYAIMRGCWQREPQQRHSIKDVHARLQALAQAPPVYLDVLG

SMILES	IC50 [2] [nM]	IC50 ([3]; Homo sapiens, KM12, 72 h) [nM]	IC50 [3] [nM]	IC50 ([1]; Homo sapiens, KM12, 72 h) [nM]	IC50 [1] [nM]
O=C(N[C@H](CO)c1cc(F)ccc1F)c1n[nH]c2ncnc(N[C@@H]3COCC[C@H]3O)c12 [Compound 56]	10 to 100	100 to 1000	–	100 to 1000	–
CN(Cc1cc(F)cnc1Cl)C(=O)c1n[nH]c2ncnc(N[C@@H]3CC[C@@H](O)[C@H]3O)c12 [Compound 60]	10 to 100	10 to 100	–	10 to 100	–
O=C(NC(CO)c1cc(F)ccc1F)c1n[nH]c2ncnc(NC3CC(F)CC3O)c12 (stereo not drawn) [Compound 61]	100 to 1000	100 to 1000	–	> 1000	–
O=C(c1n[nH]c2ncnc(N[C@@H]3CCOC[C@H]3O)c12)N1C[C@@H](F)C[C@@H]1c1cncc(F)c1 [Compound 73]	< 10	< 10	–	10 to 100	–
O=C(c1n[nH]c2ncnc(N[C@@H]3COCC[C@H]3O)c12)N1C[C@@H](F)C[C@@H]1c1cncc(F)c1 [Compound 74]	< 10	10 to 100	–	10 to 100	–
O=C(c1n[nH]c2ncnc(N[C@@H]3COC[C@H]3O)c12)N1C[C@@H](F)C[C@@H]1c1cc(F)ccc1F [Compound 78]	< 10	< 10	–	10 to 100	–
O=C(c1n[nH]c2ncnc(N[C@@H]3C[C@@H](O)C[C@H]3O)c12)N1C[C@@H](F)C[C@@H]1c1cc(F)ccc1F [Compound 86]	< 10	< 10	–	< 10	–
O=C(NCc1cc(F)ccc1OC(F)(F)F)c1n[nH]c2ncnc(N[C@@H]3CC[C@@H](O)[C@H]3O)c12 [Compound 101]	100 to 1000	100 to 1000	–	100 to 1000	–
CN(Cc1cc(F)ccc1OC(F)(F)F)C(=O)c1n[nH]c2ncnc(N[C@@H]3CC[C@@H](O)[C@H]3O)c12 [Compound 110]	< 10	10 to 100	–	10 to 100	–
COc1ccc(F)cc1CNC(=O)c1n[nH]c2ncnc(N[C@@H]3CC[C@@H](O)[C@H]3O)c12 [Compound 117]	100 to 1000	100 to 1000	–	> 1000	–
CN(Cc1cc(F)cc(Cl)c1F)C(=O)c1n[nH]c2ncnc(N[C@@H]3CC[C@@H](O)[C@H]3O)c12 [Compound 120]	10 to 100	10 to 100	–	10 to 100	–
O=C(c1n[nH]c2ncnc(N[C@H]3[C@H](O)[C@H](O)[C@@H]4C[C@@H]43)c12)N1C[C@@H](F)C[C@@H]1c1cccc(F)c1 [Compound 122]	< 10	< 10	–	< 10	–
O=C(c1n[nH]c2ncnc(N[C@@H]3CC[C@@H](O)[C@H]3O)c12)N1C[C@@H](F)C[C@@H]1c1cc(F)cc(Cl)c1 [Compound 127]	< 10	< 10	–	< 10	–
N#Cc1cc(F)cc([C@H]2C[C@H](F)CN2C(=O)c2n[nH]c3ncnc(N[C@H]4[C@H](O)[C@H](O)[C@@H]5C[C@@H]54)c23)c1 [Compound 129]	< 10	10 to 100	–	10 to 100	–
O=C(c1n[nH]c2ncnc(N[C@@H]3CCC[C@@H](O)[C@H]3O)c12)N1C[C@@H](F)C[C@@H]1c1cc(F)cc(Cl)c1 [Compound 130]	< 10	–	< 10	–	< 10
CN(Cc1ccccc1)C(=O)c1n[nH]c2ncnc(N[C@@H]3CC[C@@H](O)[C@H]3O)c12 [Compound 131]	100 to 1000	–	100 to 1000	–	100 to 1000
CN(Cc1cccnc1F)C(=O)c1n[nH]c2ncnc(N[C@@H]3CC[C@@H](O)[C@H]3O)c12 [Compound 133]	100 to 1000	–	100 to 1000	–	100 to 1000

The next lines start with results.

IC50 [2] [nM]	IC50 ([3]; Homo sapiens, KM12, 72 h) [nM]	IC50 [3] [nM]	SMILES	IC50 ([1]; Homo sapiens, KM12, 72 h) [nM]	IC50 [1] [nM]
10 to 100	100 to 1000	–	COc1c(F)cc(F)cc1CNC(=O)c1n[nH]c2ncnc(N[C@@H]3COCC[C@H]3O)c12 [Compound 54]	100 to 1000	–
< 10	10 to 100	–	CN(Cc1cc(F)cc(F)c1F)C(=O)c1n[nH]c2ncnc(N[C@@H]3CC[C@@H](O)[C@H]3O)c12 [Compound 63]	10 to 100	–
10 to 100	10 to 100	–	O=C(c1n[nH]c2ncnc(N[C@@H]3CC[C@@H](O)[C@H]3O)c12)N1CCC[C@@H]1c1cc(F)ccc1F [Compound 71]	100 to 1000	–
< 10	< 10	–	N#C[C@H]1C[C@H](c2cc(F)ccc2F)N(C(=O)c2n[nH]c3ncnc(N[C@@H]4CCC[C@H]4O)c23)C1 [Compound 79]	10 to 100	–
< 10	< 10	–	O=C(c1n[nH]c2ncnc(N[C@@H]3COCC[C@H]3O)c12)N1C[C@@H](F)C[C@@H]1c1cc(F)ccc1F [Compound 92]	< 10	–
< 10	< 10	–	O=C(c1n[nH]c2ncnc(NC3CC(F)CC3O)c12)N1CC(F)CC1c1cc(F)ccc1F (stereo not drawn) [Compound 95]	< 10	–
< 10	10 to 100	–	CS(=O)(=O)[C@H]1C[C@@H](O)[C@H](Nc2ncnc3[nH]nc(C(=O)NCc4cc(F)ccc4F)c23)C1 [Compound 97, N-(2,5-difluorobenzyl)-4-(((1R,2R,4R)-2-hydroxy-4-(methylsulfonyl)cyclopentyl)amino)-1H-pyrazolo[3,4-d]pyrimidine-3-carboxamide]	100 to 1000	–
< 10	< 10	–	CN(Cc1cc(F)ccc1C(F)(F)F)C(=O)c1n[nH]c2ncnc(N[C@@H]3CC[C@@H](O)[C@H]3O)c12 [Compound 99]	< 10	–
10 to 100	10 to 100	–	N#C[C@H]1C[C@H](c2cc(F)ccc2F)N(C(=O)c2n[nH]c3ncnc(N[C@@H]4COCC[C@H]4O)c23)C1 [Compound 100]	100 to 1000	–
> 1000	> 1000	–	O=C(N[C@@H](c1cc(F)ccc1F)C(F)(F)F)c1n[nH]c2ncnc(N[C@@H]3COCC[C@H]3O)c12 [Compound 103]	> 1000	–
< 10	< 10	–	O=C(c1n[nH]c2ncnc(N[C@H]3[C@H](O)[C@H](O)[C@@H]4C[C@@H]43)c12)N1C[C@@H](F)C[C@@H]1c1cc(F)ccc1F [Compound 104]	< 10	–
< 10	< 10	–	O=C(c1n[nH]c2ncnc(N[C@@H]3CCC[C@@H](O)[C@H]3O)c12)N1C[C@@H](F)C[C@@H]1c1cc(F)ccc1F [Compound 106]	< 10	–
10 to 100	100 to 1000	–	O=C(c1n[nH]c2ncnc(N[C@@H]3CC[C@@H](O)[C@H]3O)c12)N1CC(F)(F)C[C@@H]1c1cc(F)cc(F)c1 [Compound 108]	100 to 1000	–
10 to 100	10 to 100	–	O=C(c1n[nH]c2ncnc(N[C@H]3[C@H](O)[C@H](O)[C@@H]4C[C@@H]43)c12)N1CC(F)(F)C[C@@H]1c1cc(F)ccc1F [Compound 112]	100 to 1000	–
< 10	< 10	–	O=C(c1n[nH]c2ncnc(N[C@@H]3C[C@@H](C(F)F)[C@@H](O)[C@H]3O)c12)N1C[C@@H](F)C[C@@H]1c1cc(F)ccc1F [Compound 114]	< 10	–
< 10	< 10	–	CS(=O)(=O)C1CC(O)C(Nc2ncnc3[nH]nc(C(=O)N4CC(F)CC4c4cc(F)ccc4F)c23)C1 (stereo not drawn) [Compound 116]	< 10	–
10 to 100	10 to 100	–	CN(Cc1cccc(F)c1)C(=O)c1n[nH]c2ncnc(N[C@@H]3CC[C@@H](O)[C@H]3O)c12 [Compound 132]	100 to 1000	–
